Assay results reported in patent US20240279176A1, “SUBSTITUTED TRICYCLIC HETEROCYCLIC COMPOUNDS AS METALLO-BETA-LACTAMASE INHIBITORS” (priority 2021, published 2024).
Like-named read-outs stand apart in the source and are kept apart here.

Experiments:
[1] = test system: Klebsiella pneumoniae ATCC BAA-2146; assay: Minimum inhibitory concentration (MIC), broth-microdilution (CLSI); type: cell-based; conditions: ATCCBAA2146, compound alone, K. pneumoniae ATCC BAA-2146, read-out: Intrinsic MIC
Source text: (§1) The strain included in the study was Klebsiella pneumoniae ATCC BAA-2146 (Himedia®, India) with presence of New Delhi metallo-β-lactamase (NDM-1) gene. The quality control reference strains Escherichia coli ATCC 25922 and Pseudomonas aeruginosa ATCC 27853 were procured from Himedia®, India.
MIC values were identified through broth-microdilution in sterilized 96-well polystyrene flat-bottom microtitre plates (Cole-Parmer®) according to the guideline of the Clinical and Laboratory Standards Institute (CLSI) (CLSI; Methods for dilution antimicrobial susceptibility tests for bacteria that grow aerobically; Clinical Laboratory Standards Institute, M07-A09, 2012). This method involves the use of BBL™ Cation-adjusted Mueller-Hinton II Broth (CA-MHB; BD) and the strain (Klebsiella pneumoniae ATCC BAA-2146) concentration was adjusted to 5×10^5 CFU/mL. After 16-18 h of incubation at various concentrations of Imipenem, Meropenem (Alfa Aesar), or test compounds at 37° C., MIC was defined as the lowest concentration of antibiotic or test compound with no visible growth.

[2] = test system: Klebsiella pneumoniae ATCC BAA-2146; assay: Checkerboard synergy assay in combination with Meropenem; type: cell-based; conditions: K. pneumoniae ATCC BAA-2146; for Fold reduction in meropenem MIC in the presence of compounds (μg/mL) 4: compound at 4 μg/mL; for Fold reduction in meropenem MIC in the presence of compounds (μg/mL) 8: compound at 8 μg/mL; for Fold reduction in meropenem MIC in the presence of compounds (μg/mL) 16: compound at 16 μg/mL; for Fold reduction in meropenem MIC in the presence of compounds (μg/mL) 32: compound at 32 μg/mL
Source text: as §1
(§2) The fold modulation activity of test compounds, in combination with Imipenem or Meropenem, was checked against Klebsiella pneumoniae ATCC BAA-2146 strain by the broth-microdilution checkerboard synergy assay. The plates contained 5×10^5 CFU/mL bacterial inocula and 2-fold serial dilutions of the antibiotics (128-2 μg/mL) as well as test compounds (32-4 μg/mL) in a total volume of 200 μL of CA-MHB. Dimethyl sulfoxide (DMSO, ≤2.5%) was included as vehicle control. Following 16-18 h of incubation at 37° C., the MICs of antibiotics as well as drug combinations were visually inspected.

[3] = molecular target: NDM-1 (Klebsiella pneumoniae, UniProt C7C422); assay: Enzyme activity: IC50 in fluorescence assay with cephalosporin substrate FC5; type: biochemical; conditions: 50 pM NDM-1, 1.5 μM FC5, 10 min pre-incubation
Sequence of NDM-1 (C7C422 29-270, looked up): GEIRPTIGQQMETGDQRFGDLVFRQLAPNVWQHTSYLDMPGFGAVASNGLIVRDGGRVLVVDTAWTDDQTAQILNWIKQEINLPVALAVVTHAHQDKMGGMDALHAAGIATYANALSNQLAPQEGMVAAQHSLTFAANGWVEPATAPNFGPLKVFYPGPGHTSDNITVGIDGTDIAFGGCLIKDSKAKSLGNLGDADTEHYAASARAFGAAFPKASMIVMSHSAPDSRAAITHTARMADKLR
Description: (§3) The Class B beta-lactamases activities were measured in the presence of the test inhibitors in a fluorescence assay against an in-house synthesized fluorescent cephalosporin substrate FC5 (Berkel, et. al. J. Med. Chem. 2013, 56(17), 6945). The enzymes (NDM-1, IMP-1) and the substrate were diluted in 20 mM HEPES, pH 7.4, supplemented with 300 mM NaCl and 10 μM ZnSO4. In the assay, the final concentration of enzyme was 50 pM, and 100 pM for NDM-1, and IMP-1 respectively, and the final concentration of FC5 was 1.5 μM for NDM-1 and 10 μM for IMP-1. The test inhibitors/compounds were dissolved in dimethylsulfoxide (DMSO) and diluted in the assay with assay buffer (20 mM HEPES, pH 7.4, supplemented with 5% DMSO, 300 mM NaCl and 10 μM ZnSO4), resulting in a final concentration range of 0.008 μM to 25 μM. The assays were performed in 96-well microplate (flat bottom, black). The test inhibitors were incubated with the MBL enzyme for 10 min at room temperature, followed by addition the substrate and the fluorescence was recorded immediately (λex 380 nm, λem 460 nm) on a microplate reader. Using the initial velocity data plotted against the inhibitor concentration, the half-maximal inhibitory concentrations were calculated by an IC50 curve-fitting model in GraphPad Prism 9 software.

[4] = molecular target: IMP-1 (Serratia marcescens, UniProt P52699); assay: as above; type: biochemical; conditions: 100 pM IMP-1, 10 μM FC5, 10 min pre-incubation
Sequence of IMP-1 (P52699 19-246, looked up, species assumed): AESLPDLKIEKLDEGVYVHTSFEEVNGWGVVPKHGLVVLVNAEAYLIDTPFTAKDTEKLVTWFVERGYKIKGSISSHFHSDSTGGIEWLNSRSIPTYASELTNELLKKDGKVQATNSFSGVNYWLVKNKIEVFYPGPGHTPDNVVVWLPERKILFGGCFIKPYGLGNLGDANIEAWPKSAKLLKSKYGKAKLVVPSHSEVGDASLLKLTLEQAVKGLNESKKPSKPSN
Description: as §3

[5] = test system: Klebsiella pneumoniae ATCC BAA-2146; assay: Checkerboard synergy assay in combination with Imipenem; type: cell-based; conditions: K. pneumoniae ATCC BAA-2146; for Fold reduction in Imipenem MIC in the presence of compounds (μg/mL) 4: compound at 4 μg/mL; for Fold reduction in Imipenem MIC in the presence of compounds (μg/mL) 8: compound at 8 μg/mL; for Fold reduction in Imipenem MIC in the presence of compounds (μg/mL) 16: compound at 16 μg/mL; for Fold reduction in Imipenem MIC in the presence of compounds (μg/mL) 32: compound at 32 μg/mL
Source text: as §1, §2

Compound | MIC ([1]; Imipenem series) | MIC ([1]; meropenem series) | Fold reduction in meropenem MIC in the presence of compounds (μg/mL) 4 [2] | Fold reduction in meropenem MIC in the presence of compounds (μg/mL) 8 [2] | Fold reduction in meropenem MIC in the presence of compounds (μg/mL) 16 [2] | Fold reduction in meropenem MIC in the presence of compounds (μg/mL) 32 [2] | IC50 [3] | IC50 [4] | Fold reduction in Imipenem MIC in the presence of compounds (μg/mL) 4 [5] | Fold reduction in Imipenem MIC in the presence of compounds (μg/mL) 8 [5] | Fold reduction in Imipenem MIC in the presence of compounds (μg/mL) 16 [5] | Fold reduction in Imipenem MIC in the presence of compounds (μg/mL) 32 [5]
O=C(O)c1[nH]c2c(c1-c1ccc(Cl)cc1)CCc1ccccc1-2 [Example 43, 3-(4-chlorophenyl)-4,5-dihydro-1H-benzo[g]indole-2-carboxylic Acid] | > 128 µg/mL | > 128 µg/mL | 4 fold | 4 fold | 4 fold | 4 fold | 0.007 µM | 1.48 µM | 4 fold | 4 fold | 4 fold | 8 fold
O=C(O)c1[nH]c2c(c1-c1ccccc1Cl)CCc1ccccc1-2 [Example 44, 3-(2-chlorophenyl)-4,5-dihydro-1H-benzo[g]indole-2-carboxylic Acid] | > 128 µg/mL | > 128 µg/mL | 4 fold | 4 fold | 4 fold | 4 fold | 0.019 µM | 1.1 µM | 4 fold | 4 fold | 4 fold | 4 fold
O=C(O)c1[nH]c2c(c1-c1ccc(Cl)cc1Cl)CCc1ccccc1-2 [Example 46, 3-(2,4-dichlorophenyl)-4,5-dihydro-1H-benzo[g]indole-2-carboxylic acid] | > 128 µg/mL | > 128 µg/mL | 4 fold | 4 fold | 8 fold | 16 fold | 0.306 µM | 10.4 µM | 4 fold | 4 fold | 8 fold | 16 fold
O=C(O)c1[nH]c2c(c1-c1cccc(F)c1F)CCc1ccccc1-2 [Example 47, 3-(2,3-difluorophenyl)-4,5-dihydro-1H-benzo[g]indole-2-carboxylic Acid] | > 128 µg/mL | > 128 µg/mL | 2 fold | 4 fold | 4 fold | 4 fold | 0.323 µM | 3.3 µM | 2 fold | 4 fold | 4 fold | 8 fold
Cc1cc(C)cc(-c2c(C(=O)O)[nH]c3c2CCc2ccccc2-3)c1 [Example 48, 3-(3,5-dimethylphenyl)-4,5-dihydro-1H-benzo[g]indole-2-carboxylic Acid] | > 128 µg/mL | > 128 µg/mL | 4 fold | 4 fold | 4 fold | 8 fold | 0.252 µM | 0.695 µM | 4 fold | 4 fold | 8 fold | 8 fold
O=C(O)c1[nH]c2c(c1-c1cccc(Cl)c1Cl)CCc1ccccc1-2 [Example 50, 3-(2,3-dichlorophenyl)-4,5-dihydro-1H-benzo[g]indole-2-carboxylic Acid] | > 128 µg/mL | > 128 µg/mL | – | 2 fold | 2 fold | 4 fold | 0.211 µM | 25 µM | 2 fold | 2 fold | 4 fold | 4 fold
O=C(O)c1[nH]c2c(c1-c1ccncc1)CCc1ccccc1-2 [Example 51, 3-(pyridin-4-yl)-4,5-dihydro-1H-benzo[g]indole-2-carboxylic Acid] | > 128 µg/mL | > 128 µg/mL | 4 fold | 4 fold | 8 fold | 8 fold | 0.604 µM | 11.1 µM | 4 fold | 4 fold | 8 fold | 8 fold
O=C(O)c1[nH]c2c(c1-c1cc(F)cc(F)c1)CCc1ccccc1-2 [Example 52, 3-(3,5-difluorophenyl)-4,5-dihydro-1H-benzo[g]indole-2-carboxylic Acid] | > 128 µg/mL | > 128 µg/mL | – | 2 fold | 2 fold | 4 fold | 0.158 µM | 4.87 µM | 4 fold | 4 fold | 8 fold | 8 fold
